Tests used:
[1] = compound: C1CC(C1)(C(=O)[O-])C(=O)[O-].N.N.[Pt+2] [Carboplatin]; details: max 10 µM
Summary of the method: (§1)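 Following 24 hours at 37°C and 5% CO2, cancer cell lines in 1536-well plates with 7.5 μl DMEM/F12 or RPMI and 10% FBS were dosed for 72 hours, final DMSO typically being 0.2%. CellTiter-Glo 2.0 luminescence, scaled between blank-well and DMSO-well means, gave the viability readout. Dose responses were fitted to a two-parameter logistic curve with a non-linear mixed effects model, and the single-agent IC50 was derived from this fit.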

[2] = compound: C1CN(CCC1(C(=O)N[C@@H](CCO)C2=CC=C(C=C2)Cl)N)C3=NC=NC4=C3C=CN4 [AZD5363]; details: max 10 µM
Summary of the method: as §1

[3] = compound: C=CCn1c(=O)c2cnc(Nc3ccc(N4CCN(C)CC4)cc3)nc2n1-c1cccc(C(C)(C)O)n1 [AZD1775]; details: max 3 µM
Summary of the method: as §1

[4] = compound: CC(=O)Nc1cccc(-n2c(=O)n(C3CC3)c(=O)c3c(Nc4ccc(I)cc4F)n(C)c(=O)c(C)c32)c1 [Trametinib]; details: max 1 µM
Summary of the method: as §1

[5] = compound: CC(=O)O[C@H]1C(=O)[C@@]2(C)[C@H]([C@H](OC(=O)c3ccccc3)[C@]3(O)C[C@H](OC(=O)[C@H](O)[C@@H](NC(=O)c4ccccc4)c4ccccc4)C(C)=C1C3(C)C)[C@]1(OC(C)=O)CO[C@@H]1C[C@@H]2O [Paclitaxel]; details: max 3 µM
Summary of the method: as §1

[6] = compound: CC(=O)c1c(C)c2cnc(Nc3ccc(N4CCNCC4)cn3)nc2n(C2CCCC2)c1=O [Palbociclib]; details: max 10 µM
Summary of the method: as §1

[7] = compound: CC(C)n1c(=O)n(C)c2cnc3cc(F)c(-c4ccc(OCCCN5CCCCC5)nc4)cc3c21 [AZD1390]; details: max 0.3 µM
Summary of the method: as §1

[8] = compound: CC1(C)CCC(CN2CCN(c3ccc(C(=O)NS(=O)(=O)c4ccc(NCC5CCOCC5)c([N+](=O)[O-])c4)c(Oc4cnc5[nH]ccc5c4)c3)CC2)=C(c2ccc(Cl)cc2)C1 [Venetoclax]; details: max 1 µM
Summary of the method: as §1

[9] = compound: CC1=C(C(=CC=C1)Cl)NC(=O)C2=CN=C(S2)NC3=CC(=NC(=N3)C)N4CCN(CC4)CCO [Dasatinib]; details: max 2 µM
Summary of the method: as §1

[10] = compound: CC1=CN2[C@@H](C1)C=NC3=CC(=C(C=C3C2=O)OC)OCCCCCOC4=C(C=C5C(=C4)N=C[C@@H]6CC(=CN6C5=O)C)OC [SG3199]; details: max 0.001 µM
Summary of the method: as §1

[11] = compound: CCN(CCO)CCCOc1ccc2c(Nc3cc(CC(=O)Nc4cccc(F)c4)[nH]n3)ncnc2c1 [AZD2811]; details: max 1 µM
Summary of the method: as §1

[12] = compound: CCc1c2c(nc3ccc(O)cc13)-c1cc3c(c(=O)n1C2)COC(=O)[C@]3(O)CC [SN-38]; details: max 0.3 µM
Summary of the method: as §1

[13] = compound: CN(C)CCCOc1ccc(-c2ccc3ncc4c(c3c2)n(C2CCOCC2)c(=O)n4C)cn1 [AZD0156]; details: max 3 µM
Summary of the method: as §1

[14] = compound: CN(CC[C@H](CSC1=CC=CC=C1)NC2=C(C=C(C=C2)S(=O)(=O)NC(=O)C3=CC=C(C=C3)N4CCC(CC4)[C@H](C5=CC=CC=C5C6=CC=C(C=C6)Cl)O)S(=O)(=O)C(F)(F)F)CCO [AZD4320]; details: max 1 µM
Summary of the method: as §1

[15] = compound: COc1cc(Nc2ncc3c(n2)-c2ccc(Cl)cc2C(c2c(F)cccc2OC)=NC3)ccc1C(=O)O [Alisertib]; details: max 10 µM
Summary of the method: as §1

[16] = compound: COc1cc([C@@H]2c3cc4c(cc3[C@@H](O[C@@H]3O[C@@H]5CO[C@@H](C)O[C@H]5[C@H](O)[C@H]3O)[C@H]3COC(=O)[C@H]23)OCO4)cc(OC)c1O [Etoposide]; details: max 10 µM
Summary of the method: as §1

[17] = compound: COc1cc2ncnc(Nc3ccc(F)c(Cl)c3)c2cc1OCCCN1CCOCC1 [Gefitinib]; details: max 10 µM
Summary of the method: as §1

[18] = compound: COc1cccc(OCCCN)c1-c1cc(Nc2cnc(C#N)cn2)n[nH]1 [Prexasertib]; details: max 1 µM
Summary of the method: as §1

[19] = compound: COc1cccc2c1C(=O)c1c(O)c3c(c(O)c1C2=O)C[C@@](O)(C(=O)CO)C[C@@H]3O[C@H]1C[C@H](N)[C@H](O)[C@H](C)O1 [Doxorubicin]; details: max 1 µM
Summary of the method: as §1

[20] = compound: COc1nnc2ccc(N3CCC(c4ccc(OCCN5CCN(C)C(=O)[C@H]5C)cc4)CC3)nn12 [AZD5153]; details: max 1 µM
Summary of the method: as §1

[21] = compound: CS(=O)(=O)CCNCc1ccc(-c2ccc3ncnc(Nc4ccc(OCc5cccc(F)c5)c(Cl)c4)c3c2)o1 [Lapatinib]; details: max 10 µM
Summary of the method: as §1

[22] = compound: C[C@@H](Nc1cc(F)cc(F)c1)c1cc(C(=O)N(C)C)cc2c(=O)cc(N3CCOCC3)oc12 [AZD8186]; details: max 10 µM
Summary of the method: as §1

[23] = compound: C[C@@H](Oc1cc(-c2cnn(C3CCNCC3)c2)cnc1N)c1c(Cl)ccc(F)c1Cl [Crizotinib]; details: max 10 µM
Summary of the method: as §1

[24] = compound: C[C@@H](c1ccc2nccn2c1)n1nnc2ncc(-c3cnn(C)c3)nc21 [Savolitinib]; details: max 1 µM
Summary of the method: as §1

[25] = compound: C[C@@H]1COCCN1C2=NC(=NC(=C2)C3(CC3)[S@](=N)(=O)C)C4=C5C=CNC5=NC=C4 [AZD6738]; details: max 10 µM
Summary of the method: as §1

[26] = compound: Cc1c2c(nn1C)CSCc1cc(n(C)n1)CSc1cc(c3ccccc3c1)OCCCc1c(C(=O)O)n(C)c3c-2c(Cl)ccc13 [AZD5991]; details: max 1 µM
Summary of the method: as §1

[27] = compound: Cc1cc2ncnn2cc1Nc1ncc2c(n1)n(C1CCOCC1)c(=O)n2C [AZD7648]; details: max 10 µM
Summary of the method: as §1

[28] = compound: Cc1nc(-c2cn3c(n2)-c2ccc(-c4cnn(C(C)(C)C(N)=O)c4)cc2OCC3)n(C(C)C)n1 [Taselisib]; details: max 10 µM
Summary of the method: as §1

[29] = compound: Cn1cnc2c(F)c(Nc3ccc(Br)cc3Cl)c(C(=O)NOCCO)cc21 [Selumetinib]; details: max 10 µM
Summary of the method: as §1

[30] = compound: N#Cc1cnc(Nc2cc(NC[C@H]3CNCCO3)c(C(F)(F)F)cn2)cn1 [SRA737]; details: max 10 µM
Summary of the method: as §1

[31] = compound: NC1(c2ccc(-c3nc4ccn5c(=O)[nH]nc5c4cc3-c3ccccc3)cc2)CCC1 [MK-2206]; details: max 10 µM
Summary of the method: as §1

[32] = compound: Nc1ccn([C@@H]2O[C@H](CO)[C@@H](O)C2(F)F)c(=O)n1 [Gemcitabine]; details: max 0.3 µM
Summary of the method: as §1

[33] = compound: O=C(Nc1ccc2[nH]nc(-c3ccncc3)c2c1)[C@@H]1CCN(CC(=O)N2CCN(c3ccc(-c4ncccn4)cc3)CC2)C1; details: max 5 µM
Summary of the method: as §1

[34] = compound: O=C(c1cc(Cc2n[nH]c(=O)c3ccccc23)ccc1F)N1CCN(C(=O)C2CC2)CC1 [Olaparib]; details: max 10 µM
Summary of the method: as §1

[35] = compound: O=c1[nH]cc(F)c(=O)[nH]1 [5-Fluorouracil]; details: max 20 µM
Summary of the method: as §1

Row | Cell Line | IC50, cell viability 72 h [1] [nM] | IC50, cell viability 72 h [2] [nM] | IC50, cell viability 72 h [3] [nM] | IC50, cell viability 72 h [4] [nM] | IC50, cell viability 72 h [5] [nM] | IC50, cell viability 72 h [6] [nM] | IC50, cell viability 72 h [7] [nM] | IC50, cell viability 72 h [8] [nM] | IC50, cell viability 72 h [9] [nM] | IC50, cell viability 72 h [10] [nM] | IC50, cell viability 72 h [11] [nM] | IC50, cell viability 72 h [12] [nM] | IC50, cell viability 72 h [13] [nM] | IC50, cell viability 72 h [14] [nM] | IC50, cell viability 72 h [15] [nM] | IC50, cell viability 72 h [16] [nM] | IC50, cell viability 72 h [17] [nM] | IC50, cell viability 72 h [18] [nM] | IC50, cell viability 72 h [19] [nM] | IC50, cell viability 72 h [20] [nM] | IC50, cell viability 72 h [21] [nM] | IC50, cell viability 72 h [22] [nM] | IC50, cell viability 72 h [23] [nM] | IC50, cell viability 72 h [24] [nM] | IC50, cell viability 72 h [25] [nM] | IC50, cell viability 72 h [26] [nM] | IC50, cell viability 72 h [27] [nM] | IC50, cell viability 72 h [28] [nM] | IC50, cell viability 72 h [29] [nM] | IC50, cell viability 72 h [30] [nM] | IC50, cell viability 72 h [31] [nM] | IC50, cell viability 72 h [32] [nM] | IC50, cell viability 72 h [33] [nM] | IC50, cell viability 72 h [34] [nM] | IC50, cell viability 72 h [35] [nM]
1 | SK-CO-1 (Colorectal Carcinoma) | > 10000 | > 10000 | 1240 | 5.27 | 4.07 | > 10000 | > 300 | > 1000 | > 2000 | > 1 | 383 | 5.9 | > 3000 | 700 | 3130 | 2140 | > 10000 | 248 | 185 | > 1000 | > 10000 | 9810 | 1800 | > 1000 | 6580 | > 1000 | > 10000 | 1220 | 1120 | > 10000 | > 10000 | 9.48 | 85.6 | > 10000 | > 20000
2 | SK-N-SH (Neuroblastoma) | > 10000 | > 10000 | 1440 | > 1000 | 77.4 | > 10000 | > 300 | > 1000 | > 2000 | > 1 | > 1000 | 2.92 | > 3000 | 794 | 59.3 | 667 | > 10000 | 26.5 | 66.9 | > 1000 | > 10000 | > 10000 | 2410 | > 1000 | 2260 | > 1000 | > 10000 | 1520 | > 10000 | > 10000 | > 10000 | 58.5 | > 5000 | > 10000 | > 20000
3 | SKG-IIIa (Cervical Carcinoma) | > 10000 | > 10000 | > 3000 | > 1000 | 854 | > 10000 | > 300 | > 1000 | > 2000 | > 1 | > 1000 | > 300 | > 3000 | > 1000 | > 10000 | > 10000 | > 10000 | > 1000 | > 1000 | > 1000 | > 10000 | > 10000 | > 10000 | > 1000 | > 10000 | > 1000 | > 10000 | > 10000 | > 10000 | > 10000 | > 10000 | > 300 | > 5000 | > 10000 | > 20000
4 | SNU-423 (Hepatocellular Carcinoma) | > 10000 | > 10000 | 2150 | > 1000 | 124 | > 10000 | > 300 | > 1000 | > 2000 | > 1 | > 1000 | > 300 | > 3000 | > 1000 | > 10000 | > 10000 | > 10000 | 166 | > 1000 | > 1000 | > 10000 | > 10000 | > 10000 | > 1000 | > 10000 | > 1000 | > 10000 | > 10000 | > 10000 | > 10000 | > 10000 | > 300 | > 5000 | > 10000 | > 20000
5 | T84 (Colorectal Carcinoma) | > 10000 | > 10000 | 1310 | 804 | 548 | > 10000 | > 300 | > 1000 | > 2000 | > 1 | > 1000 | 131 | > 3000 | > 1000 | > 10000 | > 10000 | > 10000 | 89.7 | > 1000 | > 1000 | > 10000 | > 10000 | > 10000 | > 1000 | 6780 | > 1000 | > 10000 | 4660 | > 10000 | 4610 | > 10000 | 276 | > 5000 | > 10000 | > 20000
6 | ZR-75-30 (Breast Carcinoma) | > 10000 | > 10000 | > 3000 | > 1000 | > 3000 | > 10000 | > 300 | > 1000 | > 2000 | > 1 | > 1000 | > 300 | > 3000 | > 1000 | > 10000 | > 10000 | > 10000 | > 1000 | > 1000 | > 1000 | 869 | > 10000 | > 10000 | > 1000 | > 10000 | > 1000 | > 10000 | 9520 | > 10000 | > 10000 | > 10000 | > 300 | > 5000 | > 10000 | > 20000

Reference: the supplement of paper PMC11061612
